We go through 3 compounds from PMC6158327, “Negative Allosteric Modulators of mGlu7 Receptor as Putative Antipsychotic Drugs” (Frontiers in Molecular Neuroscience, 2018).

Assay [1] concerns the target T1, mGlu7 receptor (Homo sapiens, UniProt Q14831).
T1 construct: expressed in transfected cells
Description: HTRF cAMP assay: antagonism of L-Glu (EC80) inhibition of forskolin-stimulated cAMP accumulation (NAM profile). The settings on record: inhibition of forskolin-stimulated cAMP accumulation. The class given is cell-based. The procedure:
(§1) A homogeneous time-resolved fluorescence (HTRF) cAMP dynamic 2 (Cisbio, Codolet, France) assay was performed as previously described ([Chruścicka et al., 2015]) with recombinant cell lines. Briefly, HEK 293 T-REx cells stably expressing mGlu7 receptor, were collected and suspended in Hanks-HEPES buffer. The cell suspension was added to compounds solution with 5 μM of forskolin (final concentration). After 5 min incubation in 37°C, 5 μl of cAMP-d2 conjugate in lysis buffer was added and mixed with the 10 μl cell suspension by means of an automated pipetting system (Tecan Evo 200, Tecan, Mannedorf, Switzerland). Next, 5 μl anti-cAMP cryptate conjugate was added and the fluorescence at 620 and 665 nm was read after 1 h (Tecan Infinite M1000). The results are shown as the 665 nm/620 nm ratio multiplied by 10^4. The detected signal was inversely proportional to the concentration of cAMP in the sample. […] Each experiment was performed three times (n = 3), and each data point was in triplicate.
On the technique in general: Time-resolved FRET reads energy transfer from a long-lived donor to a nearby acceptor.

Assay [2] concerns the target mGlu7. Further details: method as in Wright et al., 2000. As to conditions: ref Wright et al., 2000; read-out: Ki (affinity of mGlu7 for glutamate); cited from earlier work.
Assay [3] deals with prepulse-induced inhibition of the acoustic startle response. The assay can be described thus: Prepulse inhibition of the acoustic startle response. As to conditions: MK-801 0.3 mg/kg, rats. It counts as in vivo, Wistar rats. The procedure: The procedure was performed according to [Czyrak et al., 2003]. On the day before the experiment, the animals were subjected to a single startle session consisting of two trials, each presented 20 times during the session. During the first trial, a 120 dB, 40 ms pulse was presented, and on the second trial this pulse was preceded by a 75 dB, 20 ms prepulse. On the day of the experiment, the animals were habituated to the background white noise (65 dB) for 5 min (which continued throughout the test), after that the startle session was carried out as described above. Startle response amplitude was defined as the difference between the maximum force detected during a recording window and the force measured immediately before the stimulus onset (the threshold was set at 10 g). For each animal, the amplitudes were averaged separately for each type of trial. The PPI was calculated as the difference between the amplitudes of the pulse (P) and the prepulse + pulse (PP+P), divided by the amplitude of the pulse alone [([P - (PP + P)]/P)×100].

Assay [4] concerns the target T1, mGlu7 receptor. Description: HTRF cAMP assay: potentiation of forskolin action without agonist (inverse agonist properties). The class given is cell-based. The settings on record: T-REx 293 cells, 5 μM forskolin. As for the experimental part:
as §1
Both compounds dose-dependently potentiated forskolin action, elevating cAMP concentration in the T-REx 293 cells (Figure 2B). […] This effect was not observed for an antagonist of mGluR7 – XAP044.

Structures can show the parent of a compound that is named as a salt.

T1 sequence (Q14831 35-915): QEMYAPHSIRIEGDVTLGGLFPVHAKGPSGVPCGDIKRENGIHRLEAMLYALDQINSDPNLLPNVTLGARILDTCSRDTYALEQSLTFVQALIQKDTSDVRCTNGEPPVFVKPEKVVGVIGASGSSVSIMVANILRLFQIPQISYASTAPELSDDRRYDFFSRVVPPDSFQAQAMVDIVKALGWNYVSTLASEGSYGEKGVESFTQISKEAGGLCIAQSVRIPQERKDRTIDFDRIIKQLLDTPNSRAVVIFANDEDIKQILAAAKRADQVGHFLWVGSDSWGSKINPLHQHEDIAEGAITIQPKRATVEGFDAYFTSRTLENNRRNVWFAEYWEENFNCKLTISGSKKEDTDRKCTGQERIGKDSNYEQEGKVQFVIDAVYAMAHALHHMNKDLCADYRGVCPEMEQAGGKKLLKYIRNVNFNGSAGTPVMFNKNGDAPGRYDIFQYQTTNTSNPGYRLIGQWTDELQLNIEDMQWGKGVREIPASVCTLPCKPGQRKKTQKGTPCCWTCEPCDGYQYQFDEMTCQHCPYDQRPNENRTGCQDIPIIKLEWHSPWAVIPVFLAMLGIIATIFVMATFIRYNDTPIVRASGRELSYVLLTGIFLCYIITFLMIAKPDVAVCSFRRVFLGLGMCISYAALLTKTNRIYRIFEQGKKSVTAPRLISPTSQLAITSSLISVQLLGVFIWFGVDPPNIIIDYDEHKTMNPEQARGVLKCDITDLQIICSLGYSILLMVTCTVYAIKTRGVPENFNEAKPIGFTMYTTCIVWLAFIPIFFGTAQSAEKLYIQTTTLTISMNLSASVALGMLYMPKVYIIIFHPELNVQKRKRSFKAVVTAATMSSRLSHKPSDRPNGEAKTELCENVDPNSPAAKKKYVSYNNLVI

As a reminder, the Ki is a measure of affinity in units of concentration, obtained from inhibition or displacement. Regarding `N[C@@H](CCC(=O)O)C(=O)O` [L-Glu], the “L-Glu EC80 concentration” value in assay [1] was determined as 6260 µM. In assay [2], the inhibition constant Ki was 869 µM. As for `C[C@]12N[C@H](Cc3ccccc31)c1ccccc12` [MK-801, (5S,10R)-(+)-5-Methyl-10,11-dihydro-5H-dibenzo[a,d]cyclo-hepten-5,10-imine maleate], in assay [3], the “Prepulse-induced inhibition of the acoustic startle response after MK-801” value is given as 16 % of control.

Turning to `O=c1c(Oc2ccc(I)cc2)coc2cc(O)ccc12` [XAP044], in assay [4], the “Potentiation of forskolin action (inverse agonist effect)” value is given as “not observed”.
